Reference: US10632127B2, “Targeted notch pathway inhibitors” (Hoffmann-La Roche Inc., priority 2015, dated 2020)
Where two headings read alike, the source gives them in different places.

Experiments:
[1] = Distribution in plasma, liver and kidney in the aristolochic acid mouse model (repeated i.p.); assay type: in vivo; conditions: for concentration at 13 h: male, C57BL/6, mouse, ip
Description: (§1) For PK evaluation, the compounds were administered i.p to male C57BL/6 mice in suspension (gelatine/saline 7.5%/0.62% in water) using an administration volume of 4 mL/kg. Blood samples were collected in tubes containing EDTA, plasma was separated by centrifugation and stored at −80° C. Liver and kidney samples (˜100 mg aliquots) were homogenized in three volumes of water using Precellys tissue homogenization tubes (precellys.com). 25 μL of each tissue homogenate was further diluted with 25 μL blank plasma to produce the final tissue homogenate for extraction. All samples were analyzed using protein precipitation followed by LC-MS/MS analysis. Briefly, 50 μL plasma or final tissue homogenate were mixed with 50 μL 0.5M HClO4/acetonitrile 9/1 (containing 200 ng/mL internal standard bosentan). Samples were stirred and 300 μL water was added followed by centrifugation at 5600 rpm (4° C., 10 min). 10 μL supernatant was analyzed by LC/MS analysis. Calibration standards in plasma were prepared the same way. The LC column and conditions used were: Phenomenex, Polar RP, 4 μm, 50×2.1 mm at 0.4 mL/min flow rate with a 3 min gradient from 95% solvent A to 95% solvent B (Solvent A: Water/ACN/HCOOH, 90:10:0.1+10 mM NH4 formate; Solvent B: Water/ACN/HCOOH, 10:90:0.1+10 mM NH4 formate). Mass spectrometric conditions were: Thermo TSQ Vantage with positive heated electrospray ionization in MS/MS mode. Compounds mass transitions monitored were m/z 320.7 to 119.9. PK parameters for all studies were calculated using Phoenix WinNonlin Software.
All experiments with animals were conducted in accordance with federal and local regulation at the respective study location. Kidney injury was induced by intraperitoneal (i.p). injection of aristolochic acid (AA, Sigma-Aldrich, 1×5 mg/kg) in 10 weeks old BALB/c male mice. The γ-secretase inhibitors prodrugs were diluted in NaCl 0.9% and administered i.p., starting one day before the injection of AA (day −1) and then twice daily until day 6 evening (n=5 mice/experimental group). […] The kidneys were cut in four fragments. One fragment was immediately frozen in liquid nitrogen, one fragment was included in OCT (Tissue-Tek, VWR International, Switzerland) and frozen, one fragment was frozen at −80° C. and one fragment was fixed in 4% paraformaldehyde and included in paraffin.
To investigate potential nephroprotective effects of Notch blockade using γ-secretase inhibition and to evaluate the effects of our enzyme-targeted prodrug strategy, we used the in vivo AA mouse model of acute renal tubular damage. […]
Plasma and tissue concentrations of administered compound (Table 6A-C) and formed free γ-secretase inhibitor (8) (Table 6A) or amine-SecrI (11a) (Table 6B-C) were determined following 8-day repeated i.p. administration at 10 mg/kg b.i.d. (Table 6A) or 30 mg/kg b.i.d. […] Numbers in parentheses represent relative amounts with the exposure of 11a in kidney arbitrarily set at each time point to 100%. […] BQL=below quantifiable limit.

[2] = Pharmacokinetic assessment in male Wistar rats (i.v.); assay type: in vivo, rat
Description: as §1
We next determined the stability, tissue distribution and cleavage rate in plasma, liver and kidney of the designed prodrugs in male Wistar rats. In the in vivo screen, the kinetics and distribution of the prodrugs Ac-γ-Glu-SecrI (13a) and Ac-γ-Glu-O-SecrI (13c) were compared with the active γ-secretase inhibitor SecrI (8). After i.v. administration in male Wistar rats, the disappearance of the prodrugs and the formation of the active amine-SecrI (11a), amine-O-SecrI (11b) and SecrI (8) were compared in plasma, liver and kidney (Table 7A-C). First, we determined the pharmacokinetics (PK) behavior of SecrI (8) following i.v. administration (Table 7A). […] Liver and kidney exposure were much higher, with same exposure in liver and kidney. […] The selectivity towards kidney stayed constant over time. The carbonate analogue Ac-γ-Glu-O-SecrI (13c) prodrug was converted to a lower extent than the Ac-γ-Glu-SecrI (13a) to amine-O-SecrI (11b) but more to the linker free γ-secretase inhibitor 8 (Table 7C).
Plasma and tissue concentrations of administered compound (A-C) and formed amine-SecrI (11a), amine-O-SecrI (11b) or SecrI (8) (B-C) were determined following i.v. administration in rats (no standard deviation given due to sparse sampling; n≤3 rats per time point). Numbers in parentheses represent relative amounts with the exposure of kidney arbitrarily set at each time point to 100%. […] BQL=below quantifiable limit.

[3] = AA-exposed mice, 11a 10 mg/kg b.i.d. i.p. repeated, 13 h
[4] = AA-exposed mice, 13a 30 mg/kg b.i.d. i.p. repeated, 13 h
[5] = mice, 13a 30 mg/kg b.i.d. i.p. repeated, without AA (Table 6B), 13 h

C[C@H]1Oc2ccc(F)cc2N(CCO)C(=O)[C@H]1NC(=O)[C@@](C)(O)C(=O)NCC(F)(F)C(F)(F)F [Compound 8, N-[(6R,7S)-2-Fluoro-9-(2-hydroxy-ethyl)-6-methyl-8-oxo-6,7,8,9-tetrahydro-5-oxa-9-aza-benzocyclohepten-7-yl]-2-(S)-hydroxy-2-methyl-N′-(2,2,3,3,3-pentafluoro-propyl)-malonamide]
Plasma concentration of formed 8 [1, 3]: BQL | 8 in kidney, relative amount (arbitrarily set to 100%) ([2]; 8 3.5 mg/kg i.v., 0.25 h): (100) % | 8 in liver, relative amount (kidney = 100%) ([2]; 8 3.5 mg/kg i.v., 0.25 h): (93) % | 8 in kidney, relative amount (arbitrarily set to 100%) ([2]; 8 3.5 mg/kg i.v., 1.25 h): (100) % | 8 in liver, relative amount (kidney = 100%) ([2]; 8 3.5 mg/kg i.v., 1.25 h): (101) % | 8 in kidney, relative amount (arbitrarily set to 100%) ([2]; 8 3.5 mg/kg i.v., 2.2 h): (100) % | 8 in liver, relative amount (kidney = 100%) ([2]; 8 3.5 mg/kg i.v., 2.2 h): (133) % | 8 in kidney, relative amount (arbitrarily set to 100%) ([2]; 8 3.5 mg/kg i.v., 7 h): (100) % | 8 in liver, relative amount (kidney = 100%) ([2]; 8 3.5 mg/kg i.v., 7 h): (126) % | Plasma concentration of formed 8 ([2]; 13c 1.5 mg/kg i.v., 4 h): BQL | Formed 8 in kidney, relative amount (arbitrarily set to 100%) ([2]; 13c 1.5 mg/kg i.v., 7 h): (100) % | Formed 8 in liver, relative amount (kidney = 100%) ([2]; 13c 1.5 mg/kg i.v., 7 h): (43) % | Plasma concentration of formed 8 ([2]; 13c 1.5 mg/kg i.v., 7 h): BQL | kidney selectivity, in words ([2]; formed after 13c i.v.): only a moderate kidney selectivity | plasma clearance, in words ([2]; i.v.): rapid plasma clearance | plasma exposure, in words ([2]; i.v.): good plasma exposure | concentration at 0.25 h ([2]; rat, kidney, iv, 8 3.5 mg/kg i.v., 0.25 h, read-out: Kidney concentration of 8): 3320 ng/g | concentration at 1.25 h ([2]; rat, kidney, iv, 8 3.5 mg/kg i.v., 1.25 h, read-out: Kidney concentration of 8): 844 ng/g | concentration at 2.2 h ([2]; rat, kidney, iv, 8 3.5 mg/kg i.v., 2.2 h, read-out: Kidney concentration of 8): 225 ng/g | concentration at 7 h ([2]; rat, kidney, iv, 8 3.5 mg/kg i.v., 7 h, read-out: Kidney concentration of 8): 92.4 ng/g | concentration at 0.25 h ([2]; rat, liver, iv, 8 3.5 mg/kg i.v., 0.25 h, read-out: Liver concentration of 8): 3100 ng/g | concentration at 1.25 h ([2]; rat, liver, iv, 8 3.5 mg/kg i.v., 1.25 h, read-out: Liver concentration of 8): 852 ng/g | concentration at 2.2 h ([2]; rat, liver, iv, 8 3.5 mg/kg i.v., 2.2 h, read-out: Liver concentration of 8): 298 ng/g | concentration at 7 h ([2]; rat, liver, iv, 8 3.5 mg/kg i.v., 7 h, read-out: Liver concentration of 8): 116 ng/g | concentration at 0.25 h ([2]; rat, plasma, iv, 8 3.5 mg/kg i.v., 0.25 h, read-out: Plasma concentration of 8): 964 ng/mL | concentration at 1.25 h ([2]; rat, plasma, iv, 8 3.5 mg/kg i.v., 1.25 h, read-out: Plasma concentration of 8): 198 ng/mL | concentration at 2.2 h ([2]; rat, plasma, iv, 8 3.5 mg/kg i.v., 2.2 h, read-out: Plasma concentration of 8): 39.7 ng/mL | concentration at 7 h ([2]; rat, plasma, iv, 8 3.5 mg/kg i.v., 7 h, read-out: Plasma concentration of 8): 18.4 ng/mL

C[C@H]1Oc2ccc(F)cc2N(CCOC(=O)NCCN)C(=O)[C@H]1NC(=O)[C@@](C)(O)C(=O)NCC(F)(F)C(F)(F)F.Cl [Compound 11a, 2-((2R,3S)-7-Fluoro-3-((S)-2-hydroxy-2-methyl-3-oxo-3-(2,2,3,3,3-pentafluoropropylamino)propanamido)-2-methyl-4-oxo-3,4-dihydrobenzo[b][1,4]oxazepin-5(2H)-yl)ethyl 2-aminoethylcarbamate hydrochloride]
exposure of amine-SecrI (11a) in the Ac-γ-Glu-SecrI (13a) group, in words ([1]; 13a 30 mg/kg b.i.d., 12 h post administration, compared with 11a group): comparatively lower exposure | exposure of kidney and liver with amine-SecrI (11a), in words ([1]; AA model, 11a 10 mg/kg b.i.d., 12 h post administration): high exposure of kidney and liver | 11a in kidney, relative amount (arbitrarily set to 100%) [1, 3]: (100) % | 11a in liver, relative amount (11a in kidney = 100%) [1, 3]: 68% | Plasma concentration of formed 11a [1, 4]: BQL | concentration at 13 h ([1]; kidney, 10 mg/kg, AA-exposed mice, 11a 10 mg/kg b.i.d. i.p. repeated, 13 h, read-out: Kidney concentration of 11a): 1830 ng/g | concentration at 13 h ([1]; liver, 10 mg/kg, AA-exposed mice, 11a 10 mg/kg b.i.d. i.p. repeated, 13 h, read-out: Liver concentration of 11a): 1250 ng/g | concentration at 13 h ([1]; plasma, 10 mg/kg, AA-exposed mice, 11a 10 mg/kg b.i.d. i.p. repeated, 13 h, read-out: Plasma concentration of 11a): 7.2 ng/mL | Liver concentration of formed 11a [1, 5]: BQL | Plasma concentration of formed 11a [1, 5]: BQL | Plasma concentration of formed 11a ([2]; 13a 1.6 mg/kg i.v., 0.25 h): BQL | Plasma concentration of formed 11a ([2]; 13a 1.6 mg/kg i.v., 0.5 h): BQL | Plasma concentration of formed 11a ([2]; 13a 1.6 mg/kg i.v., 4 h): BQL | Liver concentration of formed 11a ([2]; 13a 1.6 mg/kg i.v., 7 h): BQL | Plasma concentration of formed 11a ([2]; 13a 1.6 mg/kg i.v., 7 h): BQL

CC(=O)N[C@@H](CCC(=O)NCCNC(=O)OCCN1C(=O)[C@@H](NC(=O)[C@@](C)(O)C(=O)NCC(F)(F)C(F)(F)F)[C@@H](C)Oc2ccc(F)cc21)C(=O)O [Compound 13a, (S)-2-acetamido-5-(2-((2-((2R,3S)-7-fluoro-3-((S)-2-hydroxy-2-methyl-3-oxo-3-(2,2,3,3,3-pentafluoropropylamino)propanamido)-2-methyl-4-oxo-3,4-dihydrobenzo[b][1,4]oxazepin-5(2H)-yl)ethoxy)carbonylamino)ethylamino)-5-oxopentanoic acid]
Plasma concentration of 13a [1, 4]: BQL | concentration at 13 h ([1]; kidney, 30 mg/kg, AA-exposed mice, 13a 30 mg/kg b.i.d. i.p. repeated, 13 h, read-out: Kidney concentration of 13a): 23 ng/g | concentration at 13 h ([1]; kidney, 30 mg/kg, mice, 13a 30 mg/kg b.i.d. i.p. repeated, without AA (Table 6B), 13 h, read-out: Kidney concentration of 13a): 11 ng/g | concentration at 13 h ([1]; liver, 30 mg/kg, AA-exposed mice, 13a 30 mg/kg b.i.d. i.p. repeated, 13 h, read-out: Liver concentration of 13a): 155 ng/g | concentration at 13 h ([1]; liver, 30 mg/kg, mice, 13a 30 mg/kg b.i.d. i.p. repeated, without AA (Table 6B), 13 h, read-out: Liver concentration of 13a): 19 ng/g | concentration at 13 h ([1]; plasma, 30 mg/kg, mice, 13a 30 mg/kg b.i.d. i.p. repeated, without AA (Table 6B), 13 h, read-out: Plasma concentration of 13a): 6 ng/mL | Liver concentration of 13a ([2]; 13a 1.6 mg/kg i.v., 4 h): BQL | Plasma concentration of 13a ([2]; 13a 1.6 mg/kg i.v., 4 h): BQL | Kidney concentration of 13a ([2]; 13a 1.6 mg/kg i.v., 7 h): BQL | Liver concentration of 13a ([2]; 13a 1.6 mg/kg i.v., 7 h): BQL | Plasma concentration of 13a ([2]; 13a 1.6 mg/kg i.v., 7 h): BQL | conversion to amine-SecrI (11a), in words ([2]; 13a i.v., 0.25 h): high conversion | conversion to the linker-free γ-secretase inhibitor 8, in words ([2]; i.v.): never observed significant amounts | plasma exposure, in words ([2]; i.v.): low plasma exposure | stability in plasma, in words ([2]; i.v.): good stability in plasma | concentration at 0.25 h ([2]; rat, kidney, iv, 13a 1.6 mg/kg i.v., 0.25 h, read-out: Kidney concentration of 13a): 188 ng/g | concentration at 0.5 h ([2]; rat, kidney, iv, 13a 1.6 mg/kg i.v., 0.5 h, read-out: Kidney concentration of 13a): 12.7 ng/g | concentration at 4 h ([2]; rat, kidney, iv, 13a 1.6 mg/kg i.v., 4 h): 16.6 ng/g | concentration at 0.25 h ([2]; rat, liver, iv, 13a 1.6 mg/kg i.v., 0.25 h, read-out: Liver concentration of 13a): 400 ng/g | concentration at 0.5 h ([2]; rat, liver, iv, 13a 1.6 mg/kg i.v., 0.5 h, read-out: Liver concentration of 13a): 33.4 ng/g | concentration at 0.25 h ([2]; rat, plasma, iv, 13a 1.6 mg/kg i.v., 0.25 h, read-out: Plasma concentration of 13a): 295 ng/mL | concentration at 0.5 h ([2]; rat, plasma, iv, 13a 1.6 mg/kg i.v., 0.5 h, read-out: Plasma concentration of 13a): 11.2 ng/mL
